In publication PMC5041959, “A high-content EMT screen identifies multiple receptor tyrosine kinase inhibitors with activity on TGFβ receptor” (Oncotarget, 2016):
Like-named read-outs stand apart in the source and are kept apart here.

What was measured:
[1] = system: NMuMG cells; test: High-content microscopy EMT screen in TGFβ-treated NMuMG cells (FA, SF, FN, cell count); format: cell-based, murine; conditions: for Emax (maximal effect on cell count): compared to reference 10 μM SB-431542 = 100%; for Emax: read-out: Emax (maximal effect on cell count)
[2] = system: ROCK; test: ROCK cellular assay (MLC Thr18/Ser19 phosphorylation ELISA in A7r5 cells); format: cell-based, rat; conditions: 90 min compound
[3] = biological target: ROCK1 (Homo sapiens, UniProt Q13464); test: Biochemical kinase profiling (33PanQinase radiometric assay)
[4] = biological target: ROCK2 (Homo sapiens, UniProt O75116); test: as above
[5] = biological target: EGFR (Homo sapiens, UniProt P00533); test: as above
Sequence of EGFR (P00533 25-1210): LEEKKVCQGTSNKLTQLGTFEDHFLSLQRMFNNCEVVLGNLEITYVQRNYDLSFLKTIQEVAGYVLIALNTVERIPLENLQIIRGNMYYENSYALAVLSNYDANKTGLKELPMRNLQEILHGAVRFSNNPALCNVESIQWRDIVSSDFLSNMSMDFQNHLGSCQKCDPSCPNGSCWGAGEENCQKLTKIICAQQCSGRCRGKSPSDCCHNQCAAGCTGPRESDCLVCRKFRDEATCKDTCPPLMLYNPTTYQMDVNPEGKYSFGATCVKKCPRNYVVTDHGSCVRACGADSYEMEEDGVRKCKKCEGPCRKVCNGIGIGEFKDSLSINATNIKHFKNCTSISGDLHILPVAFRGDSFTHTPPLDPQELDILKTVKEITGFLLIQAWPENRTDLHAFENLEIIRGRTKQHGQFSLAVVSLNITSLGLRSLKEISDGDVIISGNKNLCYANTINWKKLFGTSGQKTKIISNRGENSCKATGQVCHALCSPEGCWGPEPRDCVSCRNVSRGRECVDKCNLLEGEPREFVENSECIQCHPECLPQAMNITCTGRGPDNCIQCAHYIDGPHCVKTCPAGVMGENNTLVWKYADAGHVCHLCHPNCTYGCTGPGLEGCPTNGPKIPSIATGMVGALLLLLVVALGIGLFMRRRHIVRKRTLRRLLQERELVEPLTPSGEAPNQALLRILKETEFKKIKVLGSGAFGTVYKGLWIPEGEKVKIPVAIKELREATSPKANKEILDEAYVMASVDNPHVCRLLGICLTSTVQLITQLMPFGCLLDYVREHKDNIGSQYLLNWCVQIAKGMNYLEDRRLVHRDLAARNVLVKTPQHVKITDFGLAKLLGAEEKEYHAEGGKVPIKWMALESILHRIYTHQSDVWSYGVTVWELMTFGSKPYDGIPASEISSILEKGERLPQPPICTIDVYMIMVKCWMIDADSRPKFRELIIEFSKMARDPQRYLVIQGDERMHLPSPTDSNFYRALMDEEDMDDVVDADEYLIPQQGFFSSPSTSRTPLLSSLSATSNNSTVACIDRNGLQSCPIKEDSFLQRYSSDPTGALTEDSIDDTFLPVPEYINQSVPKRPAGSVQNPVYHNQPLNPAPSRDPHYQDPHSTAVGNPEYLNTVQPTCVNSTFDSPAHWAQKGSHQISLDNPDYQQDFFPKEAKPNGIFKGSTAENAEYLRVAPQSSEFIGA

[6] = biological target: FGFR1 (Homo sapiens, UniProt P11362); test: as above
Sequence of FGFR1 (P11362 22-822): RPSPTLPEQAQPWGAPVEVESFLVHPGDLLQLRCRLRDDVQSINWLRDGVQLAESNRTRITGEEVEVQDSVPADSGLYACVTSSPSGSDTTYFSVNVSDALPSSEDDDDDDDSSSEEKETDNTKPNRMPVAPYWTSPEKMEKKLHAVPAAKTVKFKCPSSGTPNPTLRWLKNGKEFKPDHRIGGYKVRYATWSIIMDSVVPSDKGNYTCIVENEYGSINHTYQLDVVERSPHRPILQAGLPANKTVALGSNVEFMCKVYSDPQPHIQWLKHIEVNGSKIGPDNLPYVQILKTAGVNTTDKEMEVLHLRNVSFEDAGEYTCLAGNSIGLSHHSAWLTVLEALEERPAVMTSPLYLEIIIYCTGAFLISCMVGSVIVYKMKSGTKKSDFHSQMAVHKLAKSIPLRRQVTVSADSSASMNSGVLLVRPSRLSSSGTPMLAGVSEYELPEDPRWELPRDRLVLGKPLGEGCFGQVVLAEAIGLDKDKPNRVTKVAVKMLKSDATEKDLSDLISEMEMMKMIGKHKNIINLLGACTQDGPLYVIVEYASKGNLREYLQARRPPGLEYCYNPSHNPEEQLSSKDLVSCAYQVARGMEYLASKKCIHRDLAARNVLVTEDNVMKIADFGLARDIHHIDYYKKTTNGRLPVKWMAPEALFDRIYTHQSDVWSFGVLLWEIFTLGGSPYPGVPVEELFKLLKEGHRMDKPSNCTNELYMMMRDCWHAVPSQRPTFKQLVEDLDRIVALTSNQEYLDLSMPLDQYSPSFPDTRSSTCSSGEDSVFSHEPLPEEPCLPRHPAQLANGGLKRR

[7] = biological target: FGFR2 (Homo sapiens, UniProt P21802); test: as above
[8] = biological target: FGFR3 (Homo sapiens, UniProt P22607); test: as above
[9] = biological target: FGFR4 (Homo sapiens, UniProt P22455); test: as above
Sequence of FGFR4 (P22455 22-802): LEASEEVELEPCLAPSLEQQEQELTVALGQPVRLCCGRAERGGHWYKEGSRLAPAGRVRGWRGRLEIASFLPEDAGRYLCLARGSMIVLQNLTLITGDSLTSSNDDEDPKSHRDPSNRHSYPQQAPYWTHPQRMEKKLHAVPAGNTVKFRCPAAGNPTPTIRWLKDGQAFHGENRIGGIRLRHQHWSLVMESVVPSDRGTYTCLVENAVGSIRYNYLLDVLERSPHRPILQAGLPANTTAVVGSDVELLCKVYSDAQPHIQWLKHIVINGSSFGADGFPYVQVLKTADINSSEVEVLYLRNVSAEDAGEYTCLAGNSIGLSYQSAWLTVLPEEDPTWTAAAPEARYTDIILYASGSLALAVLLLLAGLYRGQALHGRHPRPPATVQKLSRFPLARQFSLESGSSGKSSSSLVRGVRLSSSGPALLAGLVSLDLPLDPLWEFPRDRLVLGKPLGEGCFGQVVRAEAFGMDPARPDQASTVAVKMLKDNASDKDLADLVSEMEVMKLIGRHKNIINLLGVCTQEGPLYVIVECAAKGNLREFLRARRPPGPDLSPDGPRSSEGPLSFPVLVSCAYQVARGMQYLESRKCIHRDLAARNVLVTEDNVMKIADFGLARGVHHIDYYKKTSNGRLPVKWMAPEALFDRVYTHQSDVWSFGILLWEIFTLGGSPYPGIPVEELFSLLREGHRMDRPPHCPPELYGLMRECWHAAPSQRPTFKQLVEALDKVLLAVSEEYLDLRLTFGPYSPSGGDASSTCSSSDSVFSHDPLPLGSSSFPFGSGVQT

[10] = biological target: PDGFRA (Homo sapiens, UniProt P16234); test: as above
[11] = biological target: PDGFRB (Homo sapiens, UniProt P09619); test: as above
Sequence of PDGFRB (P09619 33-1106): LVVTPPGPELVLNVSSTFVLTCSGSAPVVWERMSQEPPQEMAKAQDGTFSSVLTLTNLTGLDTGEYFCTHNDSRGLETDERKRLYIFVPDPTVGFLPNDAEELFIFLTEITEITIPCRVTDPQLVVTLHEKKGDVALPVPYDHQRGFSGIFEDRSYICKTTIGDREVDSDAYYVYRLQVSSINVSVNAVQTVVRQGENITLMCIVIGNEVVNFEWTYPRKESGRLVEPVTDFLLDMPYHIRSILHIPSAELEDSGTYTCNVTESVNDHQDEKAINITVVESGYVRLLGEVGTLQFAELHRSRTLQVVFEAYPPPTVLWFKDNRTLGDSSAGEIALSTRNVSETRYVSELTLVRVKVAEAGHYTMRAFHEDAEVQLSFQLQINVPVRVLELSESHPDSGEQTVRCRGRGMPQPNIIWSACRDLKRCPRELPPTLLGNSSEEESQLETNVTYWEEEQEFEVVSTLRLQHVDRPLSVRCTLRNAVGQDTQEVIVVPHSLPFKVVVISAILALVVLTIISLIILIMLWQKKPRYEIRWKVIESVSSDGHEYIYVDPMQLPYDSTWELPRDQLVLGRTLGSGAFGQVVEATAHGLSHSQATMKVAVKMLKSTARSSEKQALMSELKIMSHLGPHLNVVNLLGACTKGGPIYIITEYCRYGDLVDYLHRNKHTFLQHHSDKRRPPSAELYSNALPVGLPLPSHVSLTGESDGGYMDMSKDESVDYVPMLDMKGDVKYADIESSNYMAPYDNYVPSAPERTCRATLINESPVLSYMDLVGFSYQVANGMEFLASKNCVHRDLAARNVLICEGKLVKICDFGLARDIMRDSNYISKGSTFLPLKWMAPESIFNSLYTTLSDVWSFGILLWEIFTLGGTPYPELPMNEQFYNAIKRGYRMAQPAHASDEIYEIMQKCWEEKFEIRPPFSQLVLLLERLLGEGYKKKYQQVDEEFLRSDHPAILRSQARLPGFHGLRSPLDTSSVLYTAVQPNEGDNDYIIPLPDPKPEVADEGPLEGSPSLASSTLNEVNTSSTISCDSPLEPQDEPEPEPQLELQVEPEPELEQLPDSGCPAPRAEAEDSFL

[12] = biological target: SRC (Homo sapiens, UniProt P12931); test: as above
Sequence of SRC (P12931 whole entry): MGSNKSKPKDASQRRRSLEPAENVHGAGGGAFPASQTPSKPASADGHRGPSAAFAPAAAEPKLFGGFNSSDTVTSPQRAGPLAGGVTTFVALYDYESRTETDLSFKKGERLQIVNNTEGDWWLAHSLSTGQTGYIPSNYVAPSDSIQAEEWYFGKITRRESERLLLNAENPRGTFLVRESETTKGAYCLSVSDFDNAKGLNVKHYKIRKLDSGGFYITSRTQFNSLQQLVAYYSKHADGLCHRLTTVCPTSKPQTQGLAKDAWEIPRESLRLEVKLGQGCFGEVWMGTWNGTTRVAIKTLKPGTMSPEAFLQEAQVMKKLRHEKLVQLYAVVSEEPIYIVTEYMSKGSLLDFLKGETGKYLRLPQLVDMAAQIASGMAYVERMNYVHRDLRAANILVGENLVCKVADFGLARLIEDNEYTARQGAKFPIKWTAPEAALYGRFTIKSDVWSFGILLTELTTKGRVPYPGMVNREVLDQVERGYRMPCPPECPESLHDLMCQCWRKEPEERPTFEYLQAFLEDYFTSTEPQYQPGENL

[13] = biological target: T1, TGFBR1 (Homo sapiens, UniProt P36897); test: as above
T1 sequence (P36897 34-503): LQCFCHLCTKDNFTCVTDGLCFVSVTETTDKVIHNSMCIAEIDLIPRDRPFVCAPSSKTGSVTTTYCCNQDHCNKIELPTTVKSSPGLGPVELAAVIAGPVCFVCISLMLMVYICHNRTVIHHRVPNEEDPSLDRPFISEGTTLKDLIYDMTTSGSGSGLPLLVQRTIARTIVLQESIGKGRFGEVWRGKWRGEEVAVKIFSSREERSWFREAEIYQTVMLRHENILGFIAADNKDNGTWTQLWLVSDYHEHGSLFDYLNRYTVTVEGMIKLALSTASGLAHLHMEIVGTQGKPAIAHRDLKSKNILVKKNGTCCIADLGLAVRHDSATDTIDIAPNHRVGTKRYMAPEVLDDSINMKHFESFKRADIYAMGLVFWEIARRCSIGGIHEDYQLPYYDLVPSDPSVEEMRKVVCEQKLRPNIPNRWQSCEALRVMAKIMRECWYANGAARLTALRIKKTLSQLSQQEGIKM

[14] = biological target: TGFBR2 (Homo sapiens, UniProt P37173); test: as above
Sequence of TGFBR2 (P37173 23-567): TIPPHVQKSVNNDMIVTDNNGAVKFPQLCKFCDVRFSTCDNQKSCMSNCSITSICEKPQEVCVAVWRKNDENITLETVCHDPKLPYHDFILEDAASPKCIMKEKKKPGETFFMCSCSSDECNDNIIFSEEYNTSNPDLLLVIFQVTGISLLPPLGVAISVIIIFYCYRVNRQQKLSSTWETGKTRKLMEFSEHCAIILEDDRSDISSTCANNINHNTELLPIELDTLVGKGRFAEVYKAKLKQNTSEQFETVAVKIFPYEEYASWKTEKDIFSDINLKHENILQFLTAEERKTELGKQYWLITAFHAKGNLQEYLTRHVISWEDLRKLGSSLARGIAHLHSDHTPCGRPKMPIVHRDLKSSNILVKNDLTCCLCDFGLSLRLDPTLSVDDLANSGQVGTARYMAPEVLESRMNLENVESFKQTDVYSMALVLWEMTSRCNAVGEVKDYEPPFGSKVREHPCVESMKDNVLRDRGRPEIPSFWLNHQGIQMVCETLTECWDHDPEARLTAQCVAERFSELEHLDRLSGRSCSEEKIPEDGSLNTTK

[15] = system: Py2T cells; test: High-content microscopy EMT assay in TGFβ-treated Py2T breast cancer cells; format: cell-based, murine; conditions: for Emax (maximal effect on cell count): compared to reference 10 μM SB-431542 = 100%
[16] = system: SMAD3 phosphorylation (TGFBR activity); test: Quantification of SMAD3 phosphorylation in TGFβ-treated NMuMG cells (immunoblot, LI-COR); format: cell-based, murine; conditions: one day TGFβ plus inhibitor
Procedure: NMuMG cells plated the day before were treated for one day with TGFβ and DMSO or an inhibitor as described in the figure legends. Cells were washed with PBS and lyzed in RIPA buffer (150 mM NaCl, 2 mM MgCl, 2 mM CaCl2, 0.5% Na-deoxycholate, 10% glycerol, 1% NP-40, 0.1% SDS, 50 mM Tris pH8 supplementary with 1 mM DTT, 10 mM NaF, 1 mM sodium orthovanadate and protease inhibitor cocktail (Roche)). The proteins were resolved using SDS-PAGE and transferred to PVDF membrane. For quantitative analysis of SMAD phosphorylation, the membrane was probed with p-SMAD2/3 and GAPDH specific primary antibodies followed by fluorescent secondary antibodies (LI-COR Biosciences). The signal was captured and quantified with the Odyssey CLx Imaging system and ImageJ software form 3 independent experiments.

[17] = system: NMuMG cells; test: E-cadherin, ZO1 and vimentin immunofluorescence in TGFβ-treated NMuMG cells; format: cell-based, murine; conditions: four days TGFβ plus inhibitor
Procedure: NMuMG and Py2T cells were trypsinized, washed, seeded at 1000 cells/well, resuspended in 40 μl growth medium with a Multidrop-384 (Titertek) in 384-well microplates (Greiner, 781091), and grown overnight at 37°C, 5% CO2. The next day, 111 μl growth medium was added with the Multidrop-384 to 1 μl of the 2 mM library compounds of which 10 μl was transferred with a 384-well pipettor (VPrep, Agilent, US) to the cell assay plate and equilibrated for 10 min (final compound concentration 3 μM). For screenings at 300 nM or 30 nM, the compounds were diluted 1:10 or 1:100 in growth medium, respectively, before use. […]
Cells were imaged using the automated epifluorescence microscope ImageXpress Micro from Molecular Devices (Sunnyvale CA, USA) equipped with a plate-loading robot (CRS Catalyst, Thermo Scientific). […] The images were automatically analyzed by MetaXpress and segmented into sub-cellular structures based on morphological features such as object size and fluorescence distribution. Fluorescence distribution was a measure of the threshold intensity above local background and was adjusted for all parameters (nuclei, FA, SF and FN) by means of the respective positive and negative controls to compensate for inter-experimental variations between the different screening batches. […] Vimentin was quantified similar to SF and FN using the Angiogenesis module. […]

[18] = Mus musculus, 96 h, NMuMG, TGFβ1 2 ng/ml plus compound, 4 days, parameter decreased by 50%, read-out: FN IC50 (fibronectin patch formation)
[19] = Mus musculus, 96 h, NMuMG, TGFβ1 2 ng/ml plus compound, 4 days, parameter decreased by 50%, read-out: SF IC50 (stress fibers)
[20] = Mus musculus, NMuMG, cell count decreased by 50% compared to DMSO control, read-out: Tox IC50
[21] = Mus musculus, read-out: CCI IC50 (cell count increase)
[22] = Mus musculus, Py2T, cell count decreased by 50% compared to DMSO control, read-out: Tox IC50
[23] = Py2T, TGFβ plus compound, 4 days

Row | IC50 [1, 18] [nM] | IC50 [1, 19] [nM] | IC50 [5] [nM] | IC50 [6] [nM] | IC50 [7] [nM] | IC50 [8] [nM] | IC50 [9] [nM] | IC50 [10] [nM] | IC50 [11] [nM] | IC50 [12] [nM] | IC50 [1, 21] [nM] | SMILES | IC50 [1, 20] [nM] | Emax (maximal effect on cell count) ([1]; NMuMG) | Emax ([1]; Mus musculus) [%] | IC50 [15, 22] [nM] | Emax (maximal effect on cell count) ([15]; Py2T) | SMAD3 phosphorylation (p-SMAD3/GAPDH) [16] | other results
1 | 2050 | 2560 | 2120 | 5630 | 1010 | 9090 | > 10000 | 618 | 1.9 | 1070 |  | COCCOc1ccc2c(c1)ncn2-c1ccc2cccc(N3CCC(N)CC3)c2n1 [CP673451] | 3590 | n.m. |  |  |  |  | FA IC50 (focal adhesion formation) ([1]; NMuMG, TGFβ1 2 ng/ml plus compound, 4 days, parameter decreased by 50%): n.m.; IC50 ([2]; Rattus norvegicus, 1.5 h): 1500 nM; IC50 [3]: 3370 nM; IC50 [4]: 1000 nM; IC50 [13]: > 10000 nM; IC50 [14]: > 10000 nM
2 | 948 | 1170 |  |  |  |  |  |  |  |  | 291 | O=c1[nH]c(=O)n([C@H]2C[C@H](O)[C@@H](CO)O2)cc1I [Idoxuridine] | > 25000 |  | 12.9 | 6350 | n.m. | unchanged | FA IC50 (focal adhesions) [15, 23]: n.m.; FN IC50 (fibronectin patches) [15, 23]: n.m.; SF IC50 (stress fibers) [15, 23]: n.m.
3 | 195 | 184 | > 10000 | > 10000 | > 10000 | > 10000 | > 10000 | > 10000 | > 10000 | > 10000 | 584 | NC(=O)c1ccc(-c2nc(-c3ccc4c(c3)OCO4)c(-c3ccccn3)[nH]2)cc1 [SB-431542] | > 25000 |  | 100 | 7460 |  | blocked | IC50 ([1]; Mus musculus, 96 h, NMuMG, TGFβ1 2 ng/ml plus compound, 4 days, parameter decreased by 50%, read-out: FA IC50 (focal adhesion formation)): 243 nM; IC50 ([1]; Mus musculus, NMuMG, TGFβ treatment, proof of concept, read-out: IC50 in all three parameters (focal adhesion formation, stress fibers, fibronectin deposition)): ~200 nM; IC50 ([1]; Mus musculus, NMuMG, mean of IC50 values obtained for FA, SF, FN, read-out: EMT (FA/SF/FN) combined IC50): 388 nM; IC50 ([15]; Mus musculus, 96 h, Py2T, TGFβ plus compound, 4 days, read-out: FA IC50 (focal adhesions)): 156 nM; IC50 ([15]; Mus musculus, 96 h, Py2T, TGFβ plus compound, 4 days, read-out: FN IC50 (fibronectin patches)): 167 nM; IC50 ([15]; Mus musculus, 96 h, Py2T, TGFβ plus compound, 4 days, read-out: SF IC50 (stress fibers)): 175 nM; IC50 ([15]; Mus musculus, Py2T, TGFβ-induced EMT, read-out: IC50 for reduction of EMT markers): ~200 nM; IC50 [15, 21]: 140 nM; Emax ([15]; Mus musculus, read-out: Emax (maximal effect on cell count)): 100%; effect on TGFβ-induced loss of E-cadherin and ZO1 from junctions and vimentin filament formation [17]: completely blocked
4 |  |  |  |  |  |  |  |  |  |  |  | C[C@@H](N)[C@H]1CC[C@H](C(=O)Nc2ccncc2)CC1.Cl.Cl [Y-27632 2HCl] |  | 17.6% |  |  | 43.8% | unchanged | IC50 ([1]; NMuMG, TGFβ1 2 ng/ml plus compound, 4 days, parameter decreased by 50%, read-out: FA IC50 (focal adhesion formation)): 2650 nM; IC50 ([1]; NMuMG, TGFβ1 2 ng/ml plus compound, 4 days, parameter decreased by 50%, read-out: FN IC50 (fibronectin patch formation)): 1190 nM; IC50 ([1]; NMuMG, TGFβ1 2 ng/ml plus compound, 4 days, parameter decreased by 50%, read-out: SF IC50 (stress fibers)): 1310 nM; IC50 ([1]; NMuMG, cell count decreased by 50% compared to DMSO control, read-out: Tox IC50): > 25000 nM; IC50 ([1]; NMuMG, cell count increased by 50% compared to 100% with 10 μM SB-431542, read-out: CCI IC50 (cell count increase)): 1110 nM; IC50 ([1]; NMuMG, mean of IC50 values obtained for FA, SF, FN, read-out: EMT (FA/SF/FN) combined IC50): 1720 nM; IC50 ([15]; Py2T, TGFβ plus compound, 4 days, read-out: FA IC50 (focal adhesions)): 2150 nM; IC50 ([15]; Py2T, TGFβ plus compound, 4 days, read-out: FN IC50 (fibronectin patches)): 4830 nM; IC50 ([15]; Py2T, TGFβ plus compound, 4 days, read-out: SF IC50 (stress fibers)): 1710 nM; IC50 ([15]; Py2T, cell count decreased by 50% compared to DMSO control, read-out: Tox IC50): > 25000 nM; IC50 ([15]; Py2T, compared to 10 μM SB-431542, read-out: CCI IC50 (cell count increase)): 770 nM; IC50 [2]: 430 nM
